What was measured:
[1] = Risperidone solubility in vehicle / solvent; assay type: physicochemical; settings: NMP versus PC
[2] = Density and viscosity of placebo vehicle and formulation; assay type: physicochemical
From the text: Formulation No. R66 consisted of SAIB/NMP/PLGA/RSP in the following weight proportion: 45.5/27.3/18.2/9.0. Formulation No. R131 consisted of SAIB/PC/PLGA/RSP in the following weight proportions 40.0/33.7/17.3/9.0. It should be noted that Formulation Nos. […] and […] were formulated to yield approximately the same viscosity (see below Table). However, to achieve similar viscosities, more PC must be added to the vehicle, with a corresponding decrease in SAIB (and a minor decrease in PLGA). [table] The difference in the above-noted settling versus the difference in vehicle density is notable. As shown in the first Table of this Example, the viscosity of the placebo vehicle for Formulation No. R66 at 5° C. is slightly higher than the viscosity of the placebo vehicle for Formulation No. R131 at 5° C. […] R131

Cc1nc2n(c(=O)c1CCN1CCC(c3noc4cc(F)ccc34)CC1)CCCC2 [risperidone]
risperidone solubility in solvents [1]: higher solubility in NMP than in PC
density of risperidone [2]: 1.30 g/mL
